Here are results for twelve compounds from US8816047B2 (Cure DM Group Holdings, LLC, priority 2007, dated 2014).

Entries after “also recorded” stand apart in the source; their conditions may differ. Where two headings read alike, the source gives them in different places. Where a SMILES comes first, the peptide text is derived from it. Bridges are numbered along the chain shown (N, C = ends). Roman numbers before positions name the chains, in order. Where no end group is shown, it is not given here.

Data set [1] is described as follows: human plasma. Particulars: 37° C., up to 60 minutes.
Data set [2] in a line: In vitro stability of peptides to proteases in human plasma at 37 C (HPLC/LC-MS). The format is in vitro ADME. To be noted: human plasma 37° C.; for stability to plasma proteases: 1 hr. How it is done:
The peptides were incubated in human plasma, at 37° C. Sample incubations were performed over a period of 1 hr. Individual time points of 1, 5, 10, 30, and 60 minutes were used to follow the reactions. Deactivation of plasma proteases at each time point was achieved by heating the samples at 100° C. for 1 min. Following work-up the plasma treated samples were evaluated by reverse phase chromatography in series with at mass spectrometer, HPLC/LC-MS, against control samples.
Plasma Treated with HIP and Optimized HIP peptides were evaluated over 1, 5, 10, 30 and 60 minutes. For each time point 0.70 ml of plasma was pipetted into a 10 ml test tube. To each was added 0.30 ml of a stock solution of HIP or Optimized HIP peptide (1.66 mg/ml) prepared in phosphate buffered saline. The plasma/peptide samples were incubated at 37° C. for each time point followed by heating at 100° C. to inactivate the proteolytic activity of plasma proteases. Following inactivation, the samples were diluted with 1 ml of H2O, centrifuged and the supernatant liquid removed for analysis.
Samples were analyzed on a C-18 reverse phase column (50 mm×2.0 mm) using 0.07% TFA in H2O as buffer A and 0.07% TFA in acetonitrile as buffer B. A linear gradient of 98% A/2% B progressing to 30% A/70% B over 10 min. was used at a flow rate of 0.4 ml/min. Eluant was monitored by UV at a wavelength of 220 nm and by mass spectroscopy. Comparisons of chromatographic profiles of plasma treated peptides (37° C.) against peptide reference samples and plasma controls were used to determine the relative stability of peptide to plasma treatment.
T=0: Plasma (0.7 ml) plus peptide stock solution (0.3 ml), heat 100° C. 1 min. add 1 ml H2O, centrifuge.
Plasma background control: 0.7 ml plasma plus PBS (0.3 ml), heat 100° C. 1 min, add 1 ml H2O, centrifuge.
Peptide reference heat treated: Peptide stock solution (0.3 ml) plus 0.7 ml PBS, heat 100° C. 1 min., add 1 ml H2O.
Peptide reference no heat: Peptide stock solution (0.3 ml) add 0.7 ml PBS plus 1 ml H2O.

Data set [3] can be described thus: Pharmacokinetics and absolute bioavailability in Sprague Dawley rats, IV and SC 4 mg/kg (LC/MS MS). Particulars: for C1 h / F / Cmax / Tmax / C0 / plasma levels / AUC / half-life: rat; for F: SQ versus IV; for appearance of animals post-dosing: all times post-dosing, each route; for C0: estimated; for plasma levels: intravenous or subcutaneous; for half-life: read-out: T1/2 (converted). The format is in vivo, rat. How it is done: The absolute bioavailability and pharmacodynamic study was conducted in Sprague Dawley rats following intravenous and subcutaneous dose administration of HIP2 (FIG. 24), Optimized HIP2B and INGAP. The purpose was to determine the absorption, absolute bioavailability and plasma levels of HIP2, Optimized HIP2B and INGAP in male rats following two different routes of administration.
Six Groups of five male Sprague Dawley rats were administered HIP2, HIP2B or INGAP by intravenous and subcutaneous routes as follows in table below.
Ten serial blood plasma samples (0.03 ml each) were collected from a jugular vein catheter from five animals per group at 5, 10, 15, 30 minutes, 45 minutes followed by samples at 1, 2, 3, 8, and 24 hours post-dose. Plasma was collected into tubes containing EDTA. Following collection, samples were kept chilled on cool packs before centrifugation and transfer to pre-labeled microfuge tubes for storage at −70° C. or below.
Rat plasma samples of 200 μl each were added to a micro centrifuge tube containing 1 ml of acetonitrile (0.07% trifluoroacetic acid, TFA) and stirred with a vortex mixer for 1 min. followed by centrifugation to remove precipitated plasma proteins. The supernatant solution was removed and evaporated, using a Speed Vac, to dryness. To the micro centrifuge tube containing the dry pellet was added 200 μl of 20:80 acetonitrile:water (containing 0.07% TFA). The sample was centrifuged to remove any insoluble material and the supernatant solution transferred to analytical vials for LC/MS MS analysis. The mass spectrometer was calibrated to detect the most abundant daughter ion/ions observed for each of the respective reference samples of HIP2B (M=286.0), HIP2 (M=287.1) and INGAP (M=212.2, 356.1, 373.9). Optimized HIP2B, HIP2 and INGAP plasma samples were analyzed on a C-18 reverse phase column (50 mm×2.0 mm, Varian Pursuit XRS3) using 0.07% TFA in H2O as buffer A and 0.07% TFA in acetonitrile as buffer B. A linear gradient of 98% A/2% B progressing to 100% B over 9 minutes was used at a flow rate of 0.4 ml/min.
The following plasma controls were treated as described above and used to establish a standard concentration curve: • 1. Blank plasma as a background control • 2. Five standard plasma samples containing 6.7×10^4, 6.7×10^3, 6.7×10^2, […] ng/ml of HIP2B, HIP2 and INGAP

Data set [4] has as its system diabetic mice. Description: Streptozocin diabetic mouse model, 28 days twice-daily IP dosing (Example 2). The format is in vivo. How it is done:
In Vivo Studies. HIP3, HIP1 and HIP2 has been the subject of in vivo studies in mice. […] The subject number was selected to yield a sufficient number of diabetic animals for the study and animals were randomly assigned to study groups. All animals were dosed via intraperitoneal injections twice daily (am and pm) for 28 consecutive days. The timing of dose administration remained consistent (±2 hours) during the dosing phase.
Mice were injected intraperitoneally with streptozocin at 40 mg/kg in citrate buffer, pH 4.5, on 5 consecutive days in an attempt to render them diabetic. […] If the blood glucose level in any animal rose to above 400 mg/dL, the animal was treated with insulin. Every 3 days, at the same time each day, a nick was made on the tail and a drop of blood was collected. Glucose measurements were determined using a glucose meter. Group assignments and dose levels were as follows in Table 1:
Study endpoints included the following: changes in glucose; changes in insulin requirements; and histology of post-mortem pancreata.

In the case of Ac-IGLHDPTQGTEPNG-NH2, the not cleaved result in data set [1] was “completely stable to plasma proteases after 1 hr of incubation at 37 °C”.
The same measure, in the same setting: the entry for Ac-IGLHDPTQGTEPNGE-NH2 is “completely stable up to 1 hr of plasma incubation”.
On to IGLHDPTQGTEPNG, for which the cleaved bond result in data set [1] is “isoleucine-G, major, 1 min; also recorded: L-H, minor”.
Turning to “IGLHDPTQGTEPNGE [HIP3, Ile-Gly-Leu-His-Asp-Pro-Thr-Gln-Gly-Thr-Glu-Pro-Asn-Gly-Glu]”, the remaining at 1 h, 0.498 mg/ml in data set [2] (after 60 min, read-out: starting concentration of peptide remaining) was around 50%.
Regarding Ac-IGLHDPTQGTEPNGC(PEG)-NH2, the not cleaved entry in data set [1] is listed as “stable to plasma proteases for up to 1 hr”.
With “Ac-Ile-Gly-Leu-His-Asp-Pro-Thr-Gln-Gly-Thr-Glu-Pro-Asn-Gly-Cys(PEG)-NH2 [HIP2B Cys-PEG]”, in data set [2], the “stability to plasma proteases” value is recorded as “stable to plasma proteases for up to 1 hr”.
The term Cmax denotes the highest concentration seen after dosing. A word on the Tmax: it is the time from dosing to the highest level. What is called AUC is the area under the concentration-time curve, a measure of exposure. On to “IGLHDPTQGTEPNG [HIP2, Ile-Gly-Leu-His-Asp-Pro-Thr-Gln-Gly-Thr-Glu-Pro-Asn-Gly]”, for which the C1 h in data set [3] (IV) and in data set [3] (SQ) was 0 ng/mL throughout. Moreover, in data set [3], the F worked out at 0.01. Besides, in data set [3], the “appearance of animals post-dosing” value was “appeared normal”. The Cmax is 29 ng/mL in data set [3] (in vivo, IV) and 32 ng/mL in data set [3] (in vivo, SQ, n = 5). Besides, the Tmax was 4.98 min in data set [3] (in vivo, IV) and 4.98 min in data set [3] (in vivo, SQ). Also, the C0 in data set [3] (in vivo, IV) was 18800 ng/mL. For the same compound, the “plasma levels” value in data set [3] is reported as “very low levels of HIP2 were observed only at five minutes post dosage; also recorded: Very low levels of HIP2 were detected at 5 minutes; also recorded: observed only at the 5 minute time point”. Further, the AUC in data set [3] (in vivo, SQ, read-out: AUC(0-∝)) was 2.7 ng·h/mL; in data set [3] (in vivo, iv, read-out: AUC(0-∝)), 442 ng·h/mL. The half-life in data set [3] (in vivo, SQ) was 1.2 min; in data set [3] (in vivo, iv) it was 1.2 min. Besides, the “new component (proteolysis product)” value in data set [2] (1 min) is 5%; in data set [2] (30 min), “≈ 50%”; in data set [2] (60 min), “≈ 70%”.
The compound “IGLHDPSHGTLPNGS [INGAP, Ile-Gly-Leu-His-Asp-Pro-Ser-His-Gly-Thr-Leu-Pro-Asn-Gly-Ser, reference compound]” came in with a C1 h in data set [3] (IV) of 0 ng/mL. Further, in data set [3], the F is 0.00, the “appearance of animals post-dosing” value is “appeared normal” and the “plasma levels” value is “below the lower limit of quantitation; also recorded: undetectable at any time point”. This compound also returned a C1 h in data set [3] (SQ) of 0 ng/mL. Further, the C0 in data set [3] (male, Sprague-Dawley, plasma, IV) was 18800 ng/mL. Moreover, in data set [3] (male, Sprague-Dawley, plasma, iv, footnote *extrapolated, read-out: AUC(0-∝), extrapolated), the AUC is 440 ng·h/mL. Also, in data set [3] (male, Sprague-Dawley, plasma, iv), the half-life was below 1.5 min. Besides, the half-life in data set [3] (male, Sprague-Dawley, plasma, subcutaneous, SQ) was below 1.5 min.
With `CC[C@H](C)[C@H](NC(C)=O)C(=O)NCC(=O)N[C@@H](CC(C)C)C(=O)N[C@@H](Cc1c[nH]cn1)C(=O)N[C@@H](CC(=O)O)C(=O)N1CCC[C@H]1C(=O)N[C@H](C(=O)N[C@@H](CCC(N)=O)C(=O)NCC(=O)N[C@H](C(=O)N[C@@H](CCC(=O)O)C(=O)N1CCC[C@H]1C(=O)N[C@@H](CC(N)=O)C(=O)NCC(=O)N[C@@H](CSSC[C@H](NC(=O)CNC(=O)[C@H](CC(N)=O)NC(=O)[C@@H]1CCCN1C(=O)[C@H](CCC(=O)O)NC(=O)[C@@H](NC(=O)CNC(=O)[C@H](CCC(N)=O)NC(=O)[C@@H](NC(=O)[C@@H]1CCCN1C(=O)[C@H](CC(=O)O)NC(=O)[C@H](Cc1c[nH]cn1)NC(=O)[C@H](CC(C)C)NC(=O)CNC(=O)[C@@H](NC(C)=O)[C@@H](C)CC)[C@@H](C)O)[C@@H](C)O)C(N)=O)C(N)=O)[C@@H](C)O)[C@@H](C)O` [HIP2B Cys-Dimer, (Ac-Ile-Gly-Leu-His-Asp-Pro-Thr-Gln-Gly-Thr-Glu-Pro-Asn-Gly-Cys-NH2)2] (I: Ac-IGLHDPTQGTEPNGC-NH2 / II: Ac-IGLHDPTQGTEPNGC-NH2; disulfide I:15-II:15), the “stability to plasma proteases” value in data set [2] is “stable to plasma proteases for at least 1 hr”.
As for WIGLHDPTQGTEPNG [HIP1], in data set [4] (250 μg IP twice daily for 28 days, STZ diabetic mice), the “lower mean glucose versus control” value is listed as 14.7%. Also, the “differentiation of progenitor cells within the pancreas into new islet structures” value in data set [4] (introduced into diabetic mice) is on record as “stimulate differentiation of progenitor cells within the pancreas into new islet structures”.
On to (Ac-IGLHDPTQGTEPNGC-NH2)2, for which, in data set [1], the not cleaved entry is listed as “stable to plasma proteases for at least 1 hr”.
“Ac-IGLHDPTQGTEPNGE-NH2 [HIP3B, Ac-Ile-Gly-Leu-His-Asp-Pro-Thr-Gln-Gly-Thr-Glu-Pro-Asn-Gly-Glu-NH2]”: in data set [2], the “stability to plasma proteases” value is “completely stable”.
